Results: paper PMC4113750 (Toxins, 2014)
Like-named read-outs stand apart in the source and are kept apart here.

Legend:
Format in all cases: cell-based
[1] = target: T1, rNaV1.4 (Rattus norvegicus, UniProt P15390); assay: Whole-cell patch-clamp inhibition of rNaV1.4 in HEK 293 cells; conditions: HEK 293 cells with β1 subunit, 50-ms depolarization to −10 mV from −100 mV every 5 s, Hill fit, mean ± S.E., room temperature
T1 construct: expressed in transfected cells; host or cells: HEK 293 cells, transient transfection
Source text: (§1) Using whole-cell voltage clamp recording techniques, currents were elicited by a 50-ms depolarizing potential of −10 mV from a holding potential of −100 mV every 5 s. […] The time constants for these inhibitions were 34.01 ± 6.81 and 34.24 ± 8.13 s, respectively (Figure 1a,d). […] Dose-response curves for NaV1 subtypes tested are summarized in Figure 1e and consist of at least three data points for each concentration.
After purification, we characterized the interaction of each mutant toxin with NaV1.4. Under whole-cell patch clamp configuration, rNaV1.4 current was elicited by a 50-ms depolarizing potential of −10 mV from a holding potential of −100 mV every 5 s.
All the voltage gated sodium channels subtypes (hNaV1.3, rNaV1.4, hNaV1.5 and hNaV1.7), along with β1 subunit to increase the current density and green fluorescent protein to serve as the report protein, were individually transiently transfected into HEK 293 cells using the lipofectamine 2000 (Invitrogen, Carlsbad, CA, USA) according to its manufacturer’s instructions. HEK293 cells were cultured under standard cell culture condition (5% CO2; 37 °C) in DMEM supplemented with 10% FBS. At 36–72 h after transfection, cells with green fluorescence were selected for whole-cell patch-clamp recording at room temperature. The pipette solution contained (in mM): 140 CsF, 10 NaCl, 10 HEPES and 1 EGFA, pH7.3. The bathing solution contained (in mM): 140 NaCl, 10 HEPES, 3 KCl, 1 MgCl2 and 1 CaCl2, pH7.3.
Sodium currents were recorded on experimental cells using whole-cell patch-clamp techniques at room temperature (20–25 °C). Patch pipettes with DC resistance of 2~3 MΩ were fabricated from borosilicate glass tubing (VWR micropipettes; VWR Co., West Chester, PA, USA) using a two-stage vertical microelectrode puller (PC-10; Narishige, Tokyo, Japan) and fire-polished by a heater (Narishige, Tokyo, Japan). Whole-cell patch-clamp recordings were performed by an Axon 700B patch-clamp amplifier (Axon Instruments, Irvine, CA, USA). The P/4 protocol was used to subtract linear capacitive and leakage currents. Experimental data were acquired and analyzed using the programs Clampfit 10.0 (Axon Instruments, Irvine, CA, USA) and Sigmaplot 90 (Sigma, St. Louis, MO, USA).
Before use, the solution was diluted to the concentration of interest with fresh bathing solution. Toxin was introduced into the recording chamber (volume of 300 μL) and mixed by repeatedly pipetting 30 μL to achieve the demanded final concentration. The mixing process typically took ~5 s.
Data were analyzed using the Clampfit (Molecular Devices, Irvine, CA, USA) and Sigmaplot 10.0 (Sigma, St. Louis, MO, USA) software programs. All data points are shown as mean ± S.E. n is the number of the separated experimental cells. […] The Hill coefficient was set to 1 except where indicated. The box plots were generated at http://boxplot.tyerslab.com. In the box plots, center lines show the medians; box limits indicate the 25th and 75th percentiles as determined by R software; whiskers extend 1.5 times the interquartile range from the 25th and 75th percentiles, outliers are represented by dots. Time courses were fitted by using single exponential decay function.

[2] = target: T2, hNaV1.7 (Homo sapiens, UniProt Q15858); assay: Whole-cell patch-clamp inhibition of hNaV1.7 in HEK 293 cells; conditions: 100 nM toxin, approximate
T2 construct: expressed in transfected cells; host or cells: HEK 293 cells, transient transfection

[3] = target: T3, hNaV1.3 (Homo sapiens, UniProt Q9NY46); assay: Whole-cell patch-clamp inhibition of hNaV1.3 in HEK 293 cells; conditions: 100 nM toxin, approximate
T3 construct: expressed in transfected cells; host or cells: HEK 293 cells, transient transfection

[4] = target: T4, hNaV1.5 (Homo sapiens, UniProt Q14524); assay: Whole-cell patch-clamp inhibition of hNaV1.5 in HEK 293 cells
T4 construct: expressed in transfected cells; host or cells: HEK 293 cells, transient transfection
Source text: as §1
All the voltage gated sodium channels subtypes (hNaV1.3, rNaV1.4, hNaV1.5 and hNaV1.7), along with β1 subunit to increase the current density and green fluorescent protein to serve as the report protein, were individually transiently transfected into HEK 293 cells using the lipofectamine 2000 (Invitrogen, Carlsbad, CA, USA) according to its manufacturer’s instructions. […] At 36–72 h after transfection, cells with green fluorescence were selected for whole-cell patch-clamp recording at room temperature. […]
Sodium currents were recorded on experimental cells using whole-cell patch-clamp techniques at room temperature (20–25 °C). […] Experimental data were acquired and analyzed using the programs Clampfit 10.0 (Axon Instruments, Irvine, CA, USA) and Sigmaplot 90 (Sigma, St. Louis, MO, USA). […]
Data were analyzed using the Clampfit (Molecular Devices, Irvine, CA, USA) and Sigmaplot 10.0 (Sigma, St. Louis, MO, USA) software programs. […]

[5] = read-out: IC50 on rNaV1.4 (alanine mutants)

T1 sequence (P15390 whole entry): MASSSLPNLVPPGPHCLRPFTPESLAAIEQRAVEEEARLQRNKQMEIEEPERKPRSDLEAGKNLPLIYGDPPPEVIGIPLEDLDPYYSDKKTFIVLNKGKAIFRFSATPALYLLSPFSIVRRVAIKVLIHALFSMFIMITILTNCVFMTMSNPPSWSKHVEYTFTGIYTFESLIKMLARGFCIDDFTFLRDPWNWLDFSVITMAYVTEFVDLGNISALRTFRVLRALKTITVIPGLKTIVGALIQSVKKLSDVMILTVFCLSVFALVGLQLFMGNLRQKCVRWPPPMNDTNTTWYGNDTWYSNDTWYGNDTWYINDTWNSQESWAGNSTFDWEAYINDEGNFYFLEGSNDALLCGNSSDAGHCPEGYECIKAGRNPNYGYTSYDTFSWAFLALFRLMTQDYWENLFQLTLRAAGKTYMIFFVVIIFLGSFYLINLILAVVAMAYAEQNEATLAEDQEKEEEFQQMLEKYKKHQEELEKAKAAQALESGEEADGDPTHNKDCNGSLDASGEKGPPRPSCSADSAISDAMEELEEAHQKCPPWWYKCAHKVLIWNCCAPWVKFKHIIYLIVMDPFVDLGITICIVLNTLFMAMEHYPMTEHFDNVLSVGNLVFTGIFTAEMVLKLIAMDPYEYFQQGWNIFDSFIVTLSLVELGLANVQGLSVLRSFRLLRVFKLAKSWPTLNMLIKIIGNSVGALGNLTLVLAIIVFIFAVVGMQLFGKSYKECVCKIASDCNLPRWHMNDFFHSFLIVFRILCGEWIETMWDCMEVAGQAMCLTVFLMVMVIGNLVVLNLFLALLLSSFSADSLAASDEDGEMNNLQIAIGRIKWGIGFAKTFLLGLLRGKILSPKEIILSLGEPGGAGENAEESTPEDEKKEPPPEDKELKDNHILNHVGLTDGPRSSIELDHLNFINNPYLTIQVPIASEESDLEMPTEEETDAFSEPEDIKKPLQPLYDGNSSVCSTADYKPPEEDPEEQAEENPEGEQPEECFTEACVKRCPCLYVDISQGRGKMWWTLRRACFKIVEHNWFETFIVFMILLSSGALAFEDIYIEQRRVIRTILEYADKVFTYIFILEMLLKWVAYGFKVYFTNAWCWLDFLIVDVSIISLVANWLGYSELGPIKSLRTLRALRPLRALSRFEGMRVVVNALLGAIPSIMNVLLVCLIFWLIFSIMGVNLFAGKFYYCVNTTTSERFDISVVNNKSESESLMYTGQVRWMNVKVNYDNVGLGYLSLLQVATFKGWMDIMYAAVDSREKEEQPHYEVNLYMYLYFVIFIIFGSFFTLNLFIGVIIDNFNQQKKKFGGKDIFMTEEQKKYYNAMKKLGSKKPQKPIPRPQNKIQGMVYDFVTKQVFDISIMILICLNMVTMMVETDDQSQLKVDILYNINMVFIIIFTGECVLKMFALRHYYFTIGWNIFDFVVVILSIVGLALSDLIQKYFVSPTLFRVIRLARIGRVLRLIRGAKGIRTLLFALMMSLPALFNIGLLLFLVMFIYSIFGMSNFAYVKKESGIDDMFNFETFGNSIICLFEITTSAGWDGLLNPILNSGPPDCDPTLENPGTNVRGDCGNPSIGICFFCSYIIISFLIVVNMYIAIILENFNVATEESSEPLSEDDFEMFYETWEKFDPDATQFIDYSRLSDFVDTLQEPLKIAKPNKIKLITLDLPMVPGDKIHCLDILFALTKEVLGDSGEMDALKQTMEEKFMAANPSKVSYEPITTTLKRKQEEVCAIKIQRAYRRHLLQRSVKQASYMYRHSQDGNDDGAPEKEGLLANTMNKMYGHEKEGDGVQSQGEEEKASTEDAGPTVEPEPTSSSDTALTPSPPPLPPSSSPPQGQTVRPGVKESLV
T1 sequence (Q07699 19-218, further chain): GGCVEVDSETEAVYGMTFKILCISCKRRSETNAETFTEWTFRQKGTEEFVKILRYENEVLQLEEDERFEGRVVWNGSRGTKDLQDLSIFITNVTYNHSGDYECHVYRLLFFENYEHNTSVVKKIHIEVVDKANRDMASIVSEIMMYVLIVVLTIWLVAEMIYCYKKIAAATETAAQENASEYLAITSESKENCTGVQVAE
T4 sequence (Q14524 whole entry): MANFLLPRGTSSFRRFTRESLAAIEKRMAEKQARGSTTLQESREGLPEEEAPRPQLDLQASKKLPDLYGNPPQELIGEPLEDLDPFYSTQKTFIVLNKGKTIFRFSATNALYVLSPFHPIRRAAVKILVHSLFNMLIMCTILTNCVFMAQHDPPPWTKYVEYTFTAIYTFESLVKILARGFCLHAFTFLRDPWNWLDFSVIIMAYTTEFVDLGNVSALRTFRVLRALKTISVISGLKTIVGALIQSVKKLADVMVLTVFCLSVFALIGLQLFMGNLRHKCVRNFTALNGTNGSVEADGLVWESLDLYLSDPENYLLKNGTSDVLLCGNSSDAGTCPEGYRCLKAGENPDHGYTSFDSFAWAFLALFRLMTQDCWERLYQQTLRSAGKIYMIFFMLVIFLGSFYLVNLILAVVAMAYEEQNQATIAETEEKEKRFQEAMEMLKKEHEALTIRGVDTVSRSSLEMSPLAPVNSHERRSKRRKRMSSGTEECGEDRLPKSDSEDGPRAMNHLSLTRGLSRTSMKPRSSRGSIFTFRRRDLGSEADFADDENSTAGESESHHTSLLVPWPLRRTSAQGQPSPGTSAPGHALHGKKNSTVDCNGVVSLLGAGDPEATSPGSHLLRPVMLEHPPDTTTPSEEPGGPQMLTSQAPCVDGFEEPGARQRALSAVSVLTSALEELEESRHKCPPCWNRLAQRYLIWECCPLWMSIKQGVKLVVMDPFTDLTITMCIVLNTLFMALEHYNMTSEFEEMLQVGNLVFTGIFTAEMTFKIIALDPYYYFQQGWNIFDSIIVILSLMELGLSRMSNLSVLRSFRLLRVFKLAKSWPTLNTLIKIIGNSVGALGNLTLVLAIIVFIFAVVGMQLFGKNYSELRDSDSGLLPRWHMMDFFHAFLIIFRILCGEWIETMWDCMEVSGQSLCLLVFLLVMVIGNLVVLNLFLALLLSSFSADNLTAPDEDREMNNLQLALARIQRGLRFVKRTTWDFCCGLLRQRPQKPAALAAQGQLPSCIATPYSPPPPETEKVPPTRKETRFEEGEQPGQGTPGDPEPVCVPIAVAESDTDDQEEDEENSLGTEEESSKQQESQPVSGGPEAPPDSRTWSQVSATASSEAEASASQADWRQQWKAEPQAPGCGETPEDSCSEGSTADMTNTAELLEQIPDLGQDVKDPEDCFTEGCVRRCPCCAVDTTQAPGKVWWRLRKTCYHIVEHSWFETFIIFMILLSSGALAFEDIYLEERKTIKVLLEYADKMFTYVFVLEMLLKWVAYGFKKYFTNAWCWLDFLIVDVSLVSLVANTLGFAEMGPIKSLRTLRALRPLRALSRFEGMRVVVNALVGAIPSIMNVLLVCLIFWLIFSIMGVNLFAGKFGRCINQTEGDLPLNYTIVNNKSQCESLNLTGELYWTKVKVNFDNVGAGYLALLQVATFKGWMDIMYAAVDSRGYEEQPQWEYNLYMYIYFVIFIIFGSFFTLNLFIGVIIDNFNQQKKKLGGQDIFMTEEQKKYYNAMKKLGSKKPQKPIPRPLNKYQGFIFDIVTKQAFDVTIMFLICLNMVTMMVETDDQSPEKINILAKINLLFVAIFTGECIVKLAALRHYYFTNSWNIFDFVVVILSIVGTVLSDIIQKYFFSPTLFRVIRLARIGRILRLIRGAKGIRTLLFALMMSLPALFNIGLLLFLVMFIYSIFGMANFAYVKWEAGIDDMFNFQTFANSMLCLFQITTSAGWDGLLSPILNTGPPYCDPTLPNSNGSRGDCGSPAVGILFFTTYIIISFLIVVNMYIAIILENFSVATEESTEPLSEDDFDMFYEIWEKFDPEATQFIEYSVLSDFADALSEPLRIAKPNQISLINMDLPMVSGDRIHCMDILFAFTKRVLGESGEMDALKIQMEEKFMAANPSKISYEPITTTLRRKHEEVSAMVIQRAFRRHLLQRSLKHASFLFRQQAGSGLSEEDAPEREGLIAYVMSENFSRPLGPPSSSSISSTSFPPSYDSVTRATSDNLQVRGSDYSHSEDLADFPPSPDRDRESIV

Row | Compound | IC50 [1, 5] | also measured
1 | CC[C@H](C)[C@H](NC(=O)[C@@H](NC(=O)[C@H](CCCCN)NC(=O)[C@H](CCCNC(=N)N)NC(=O)[C@@H]1CSSC[C@@H]2NC(=O)[C@H](C)NC(=O)[C@H](CCCNC(=N)N)NC(=O)[C@H](CCCCN)NC(=O)[C@H](CO)NC(=O)[C@H](CC(=O)O)NC(=O)[C@@H]3CSSC[C@H](NC(=O)[C@H](CCCNC(=N)N)NC(=O)[C@H](CC(C)C)NC(=O)CNC(=O)[C@H](CCC(=O)O)NC(=O)[C@H](CSSC[C@H](NC(=O)[C@@H](N)Cc4ccc(O)cc4)C(=O)N[C@@H](CCC(N)=O)C(=O)N[C@@H](CCCCN)C(=O)N[C@@H](Cc4c[nH]c5ccccc45)C(=O)N[C@@H](CCSC)C(=O)N[C@@H](Cc4c[nH]c5ccccc45)C(=O)N[C@@H]([C@@H](C)O)C(=O)N3)NC2=O)C(=O)N[C@@H](CCCCN)C(=O)N[C@@H](CC(C)C)C(=O)N[C@@H](Cc2c[nH]c3ccccc23)C(=O)N1)[C@@H](C)CC)C(N)=O [JZTX-V] |  | IC50 ([1]; three to six cells, read-out: IC50 on rNaV1.4): 5.12 ± 0.87 nM; inhibition of hNaV1.7 inward current (Figure 1b) [2]: approximately 45%; inhibition of hNaV1.3 inward current (Figure 1c) [3]: ~35%; decrease of hNaV1.5 activation (peak current) ([4]; 500 nM toxin, n = 8, −10 mV from −100 mV): 43% ± 6.5%; IC50 ([4]; HEK 293 cells with β1 subunit, 50-ms depolarization to −10 mV from −100 mV every 5 s, Hill fit, mean ± S.E., three to six cells, room temperature): 2700 ± 779 nM
2 | CC[C@H](C)[C@H](NC(=O)[C@@H](NC(=O)[C@H](CCCCN)NC(=O)[C@H](CCCNC(=N)N)NC(=O)[C@@H]1CSSC[C@@H]2NC(=O)[C@H](C)NC(=O)[C@H](CCCNC(=N)N)NC(=O)[C@H](CCCCN)NC(=O)[C@H](CO)NC(=O)[C@H](CC(=O)O)NC(=O)[C@@H]3CSSC[C@H](NC(=O)[C@H](CCCNC(=N)N)NC(=O)[C@H](CC(C)C)NC(=O)CNC(=O)[C@H](CCC(=O)O)NC(=O)[C@H](CSSC[C@H](NC(=O)[C@@H](N)Cc4ccc(O)cc4)C(=O)N[C@@H](CCC(N)=O)C(=O)N[C@@H](CCCCN)C(=O)N[C@@H](Cc4c[nH]c5ccccc45)C(=O)N[C@@H](CCSC)C(=O)N[C@@H](Cc4c[nH]c5ccccc45)C(=O)N[C@@H]([C@@H](C)O)C(=O)N3)NC2=O)C(=O)N[C@@H](C)C(=O)N[C@@H](CC(C)C)C(=O)N[C@@H](Cc2c[nH]c3ccccc23)C(=O)N1)[C@@H](C)CC)C(N)=O [K22A] | 659 ± 11 nM | 
3 | CC[C@H](C)[C@H](NC(=O)[C@@H](NC(=O)[C@H](CCCCN)NC(=O)[C@H](CCCNC(=N)N)NC(=O)[C@@H]1CSSC[C@@H]2NC(=O)[C@H](C)NC(=O)[C@H](CCCNC(=N)N)NC(=O)[C@H](CCCCN)NC(=O)[C@H](CO)NC(=O)[C@H](CC(=O)O)NC(=O)[C@@H]3CSSC[C@H](NC(=O)[C@H](CCCNC(=N)N)NC(=O)[C@H](CC(C)C)NC(=O)CNC(=O)[C@H](CCC(=O)O)NC(=O)[C@H](CSSC[C@H](NC(=O)[C@@H](N)Cc4ccc(O)cc4)C(=O)N[C@@H](CCC(N)=O)C(=O)N[C@@H](CCCCN)C(=O)N[C@@H](Cc4c[nH]c5ccccc45)C(=O)N[C@@H](C)C(=O)N[C@@H](Cc4c[nH]c5ccccc45)C(=O)N[C@@H]([C@@H](C)O)C(=O)N3)NC2=O)C(=O)N[C@@H](CCCCN)C(=O)N[C@@H](CC(C)C)C(=O)N[C@@H](Cc2c[nH]c3ccccc23)C(=O)N1)[C@@H](C)CC)C(N)=O [M6A] | 252 ± 450 nM | 
4 | CC[C@H](C)[C@H](NC(=O)[C@@H](NC(=O)[C@H](CCCCN)NC(=O)[C@H](CCCNC(=N)N)NC(=O)[C@@H]1CSSC[C@@H]2NC(=O)[C@H](C)NC(=O)[C@H](CCCNC(=N)N)NC(=O)[C@H](CCCCN)NC(=O)[C@H](CO)NC(=O)[C@H](CC(=O)O)NC(=O)[C@@H]3CSSC[C@H](NC(=O)[C@H](C)NC(=O)[C@H](CC(C)C)NC(=O)CNC(=O)[C@H](CCC(=O)O)NC(=O)[C@H](CSSC[C@H](NC(=O)[C@@H](N)Cc4ccc(O)cc4)C(=O)N[C@@H](CCC(N)=O)C(=O)N[C@@H](CCCCN)C(=O)N[C@@H](Cc4c[nH]c5ccccc45)C(=O)N[C@@H](CCSC)C(=O)N[C@@H](Cc4c[nH]c5ccccc45)C(=O)N[C@@H]([C@@H](C)O)C(=O)N3)NC2=O)C(=O)N[C@@H](CCCCN)C(=O)N[C@@H](CC(C)C)C(=O)N[C@@H](Cc2c[nH]c3ccccc23)C(=O)N1)[C@@H](C)CC)C(N)=O [R20A] | 2100 ± 280 nM | 
5 | CC[C@H](C)[C@H](NC(=O)[C@@H](NC(=O)[C@H](CCCCN)NC(=O)[C@H](CCCNC(=N)N)NC(=O)[C@@H]1CSSC[C@@H]2NC(=O)[C@H](C)NC(=O)[C@H](CCCNC(=N)N)NC(=O)[C@H](CCCCN)NC(=O)[C@H](CO)NC(=O)[C@H](CC(=O)O)NC(=O)[C@@H]3CSSC[C@H](NC(=O)[C@H](CCCNC(=N)N)NC(=O)[C@H](CC(C)C)NC(=O)CNC(=O)[C@H](CCC(=O)O)NC(=O)[C@H](CSSC[C@H](NC(=O)[C@@H](N)Cc4ccc(O)cc4)C(=O)N[C@@H](CCC(N)=O)C(=O)N[C@@H](CCCCN)C(=O)N[C@@H](C)C(=O)N[C@@H](CCSC)C(=O)N[C@@H](Cc4c[nH]c5ccccc45)C(=O)N[C@@H]([C@@H](C)O)C(=O)N3)NC2=O)C(=O)N[C@@H](CCCCN)C(=O)N[C@@H](CC(C)C)C(=O)N[C@@H](Cc2c[nH]c3ccccc23)C(=O)N1)[C@@H](C)CC)C(N)=O [W5A] | 313 ± 260 nM | 
6 | CC[C@H](C)[C@H](NC(=O)[C@@H](NC(=O)[C@H](CCCCN)NC(=O)[C@H](CCCNC(=N)N)NC(=O)[C@@H]1CSSC[C@@H]2NC(=O)[C@H](C)NC(=O)[C@H](CCCNC(=N)N)NC(=O)[C@H](CCCCN)NC(=O)[C@H](CO)NC(=O)[C@H](CC(=O)O)NC(=O)[C@@H]3CSSC[C@H](NC(=O)[C@H](CCCNC(=N)N)NC(=O)[C@H](CC(C)C)NC(=O)CNC(=O)[C@H](CCC(=O)O)NC(=O)[C@H](CSSC[C@H](NC(=O)[C@@H](N)Cc4ccc(O)cc4)C(=O)N[C@@H](CCC(N)=O)C(=O)N[C@@H](CCCCN)C(=O)N[C@@H](Cc4c[nH]c5ccccc45)C(=O)N[C@@H](CCSC)C(=O)N[C@@H](C)C(=O)N[C@@H]([C@@H](C)O)C(=O)N3)NC2=O)C(=O)N[C@@H](CCCCN)C(=O)N[C@@H](CC(C)C)C(=O)N[C@@H](Cc2c[nH]c3ccccc23)C(=O)N1)[C@@H](C)CC)C(N)=O [W7A] | 1920 ± 310 nM | 
